Data set [1] is described as follows: Pharmacokinetic profiles in dogs after intravenous and oral administration. Format: in vivo. To be noted: Dog; for F: iv dose 1 mg/kg, oral dose generally 10 mg/kg; for Clearance (CL) / AUC(0-t) / half-life / Vd: iv dosing 1 mg/kg; for AUC(0-t) / half-life / Vd: plasma; for Vd: read-out: Vss. The protocol:
The compounds disclosed herein are assessed in pharmacokinetic studies in mice, rats, dogs or monkeys. The compounds are administered as a water solution, 2% HPMC+1% TWEEN® 80 in water solution, 5% DMSO+5% solutol in saline, 4% MC suspension or capsule. For the intravenous administration, the animals are generally given at 1 or 2 mg/kg dose. For the oral (p.o.) dosing, mice and rats are generally given 5 or 10 mg/kg dose, and dogs and monkeys are generally given 10 mg/kg dose. The blood samples (0.3 mL) are drawn at 0.25, 0.5, 1.0, 2.0, 3.0, 4.0, 6.0, 8.0, 12 and 24 h time points or 0.083, 0.25, 0.5, 1.0, 2.0, 4.0, 6.0, 8.0 and 24 h time points and centrifuged at 3,000 or 4000 rpm for 2 to 10 min. The plasma solutions are collected, stored at −20° C. or −70° C. until analyzed by LC/MS/MS as described above.

Data set [2] has as its target T1, PI3K p110β/p85α (h) (Homo sapiens, UniProt P42338).
T1 construct: purchased Millipore UK Ltd (assay service)
Description: PI3K p110β/p85α (h) non-radioactive HTRF assay. It counts as biochemical. The protocol: (§1) PI3K (p110β/p85α) (h) is incubated in assay buffer containing 10 μM phosphatidylinositol-4,5-bisphosphate and MgATP (concentration as required). The reaction is initiated by the addition of the MgATP mix. After incubation for 30 minutes at room temperature, the reaction is stopped by the addition of stop solution containing EDTA and biotinylated phosphatidylinositol-3,4,5-trisphosphate. Finally, detection buffer is added, which contains europium-labelled anti-GST monoclonal antibody, GST-tagged GRP1 PH domain and streptavidin-allophycocyanin. The plate is then read in timeresolved fluorescence mode and the homogenous time-resolved fluorescence (HTRF) signal is determined according to the formula HTRF=10000×(Em665 nm/Em620 nm).
(§2) The kinase assays described herein were performed at Millipore UK Ltd, Dundee Technology Park, Dundee DD2 1SW, UK.

Data set [3] addresses T2, PI3K p110α/p85α (h) (Homo sapiens, UniProt P42336).
T2 construct: purchased Millipore UK Ltd (assay service)
Briefly: PI3K p110α/p85α (h) non-radioactive HTRF assay. Format: biochemical. The protocol:
as §1, with “p110α/p85α” for “(p110β/p85α)”, “phosphatidylinositol 4,5-bisphosphate” for “phosphatidylinositol-4,5-bisphosphate”, “ATP solution.” for “MgATP mix.”, “streptavidin allophycocyanin.” for “streptavidin-allophycocyanin.”
as §2

Data set [4] concerns the target T3, PI3K (p110δ/p85α) (h) (Homo sapiens, UniProt O00329).
T3 construct: purchased Millipore UK Ltd (assay service)
Description: PI3K p110δ/p85α (h) non-radioactive HTRF assay. Format: biochemical. The protocol: as §1, with “(p110δ/p85α)” for “(p110β/p85α)”
as §2

The target of data set [5] is T4, PI3K (p120γ) (h) (Homo sapiens, UniProt P48736).
T4 construct: purchased Millipore UK Ltd (assay service)
Briefly: PI3K p120γ (h) non-radioactive HTRF assay. Format: biochemical. The protocol: as §1, with “(p120γ)” for “(p110β/p85α)”
as §2

T4 sequence (P48736 whole entry): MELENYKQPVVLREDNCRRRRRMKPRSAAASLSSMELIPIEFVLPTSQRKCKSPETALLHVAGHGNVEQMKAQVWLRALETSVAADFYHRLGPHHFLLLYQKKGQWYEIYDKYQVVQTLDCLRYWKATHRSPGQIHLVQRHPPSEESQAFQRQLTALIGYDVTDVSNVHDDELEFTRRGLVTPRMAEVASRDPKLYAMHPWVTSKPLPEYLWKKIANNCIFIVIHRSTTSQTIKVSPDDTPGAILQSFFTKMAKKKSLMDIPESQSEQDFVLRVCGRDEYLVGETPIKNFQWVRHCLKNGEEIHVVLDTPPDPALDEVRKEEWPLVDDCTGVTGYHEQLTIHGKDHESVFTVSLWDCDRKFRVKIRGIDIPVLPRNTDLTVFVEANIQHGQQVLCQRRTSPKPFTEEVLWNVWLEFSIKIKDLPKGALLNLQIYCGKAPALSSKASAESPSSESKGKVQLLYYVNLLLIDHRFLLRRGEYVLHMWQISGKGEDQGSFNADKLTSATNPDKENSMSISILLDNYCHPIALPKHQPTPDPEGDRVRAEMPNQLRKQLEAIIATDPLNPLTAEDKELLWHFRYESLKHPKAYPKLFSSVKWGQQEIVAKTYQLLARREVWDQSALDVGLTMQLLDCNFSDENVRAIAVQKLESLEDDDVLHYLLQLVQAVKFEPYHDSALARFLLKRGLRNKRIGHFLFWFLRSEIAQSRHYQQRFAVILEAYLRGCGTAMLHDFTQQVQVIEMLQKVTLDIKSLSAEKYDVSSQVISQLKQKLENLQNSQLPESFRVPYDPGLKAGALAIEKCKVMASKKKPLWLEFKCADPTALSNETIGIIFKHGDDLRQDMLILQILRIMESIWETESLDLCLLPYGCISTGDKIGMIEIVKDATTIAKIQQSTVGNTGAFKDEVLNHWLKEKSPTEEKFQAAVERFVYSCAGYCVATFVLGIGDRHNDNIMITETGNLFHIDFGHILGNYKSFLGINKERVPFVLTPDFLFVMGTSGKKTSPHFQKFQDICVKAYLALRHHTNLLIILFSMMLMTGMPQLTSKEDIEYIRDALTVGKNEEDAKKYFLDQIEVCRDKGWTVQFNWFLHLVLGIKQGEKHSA
T2 sequence (P42336 whole entry): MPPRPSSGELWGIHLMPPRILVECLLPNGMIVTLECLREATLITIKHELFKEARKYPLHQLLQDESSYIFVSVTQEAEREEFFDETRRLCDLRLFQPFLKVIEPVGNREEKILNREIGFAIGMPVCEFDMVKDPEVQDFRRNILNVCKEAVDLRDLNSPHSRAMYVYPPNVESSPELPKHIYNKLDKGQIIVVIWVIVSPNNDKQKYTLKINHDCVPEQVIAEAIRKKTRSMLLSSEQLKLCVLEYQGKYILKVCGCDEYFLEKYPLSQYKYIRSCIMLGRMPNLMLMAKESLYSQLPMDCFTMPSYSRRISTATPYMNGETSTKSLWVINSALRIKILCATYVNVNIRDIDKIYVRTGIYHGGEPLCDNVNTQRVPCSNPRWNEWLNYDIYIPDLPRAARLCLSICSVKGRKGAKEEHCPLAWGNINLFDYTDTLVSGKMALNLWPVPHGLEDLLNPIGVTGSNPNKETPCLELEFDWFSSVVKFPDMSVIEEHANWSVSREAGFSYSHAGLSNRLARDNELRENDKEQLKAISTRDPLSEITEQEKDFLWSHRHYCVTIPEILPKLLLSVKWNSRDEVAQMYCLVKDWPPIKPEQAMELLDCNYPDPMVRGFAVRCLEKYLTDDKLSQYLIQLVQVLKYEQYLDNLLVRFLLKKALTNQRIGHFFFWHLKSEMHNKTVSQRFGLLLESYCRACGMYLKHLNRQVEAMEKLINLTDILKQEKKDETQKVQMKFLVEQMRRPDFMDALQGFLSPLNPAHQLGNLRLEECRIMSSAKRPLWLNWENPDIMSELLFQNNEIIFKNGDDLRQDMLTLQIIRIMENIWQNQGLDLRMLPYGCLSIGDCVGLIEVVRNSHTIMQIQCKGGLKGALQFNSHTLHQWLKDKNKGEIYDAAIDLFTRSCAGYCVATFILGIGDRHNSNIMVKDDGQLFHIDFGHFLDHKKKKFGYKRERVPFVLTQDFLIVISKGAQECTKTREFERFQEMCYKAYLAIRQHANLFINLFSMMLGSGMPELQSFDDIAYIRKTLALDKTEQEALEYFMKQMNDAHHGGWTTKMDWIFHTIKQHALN
T2 sequence (P27986 whole entry partner): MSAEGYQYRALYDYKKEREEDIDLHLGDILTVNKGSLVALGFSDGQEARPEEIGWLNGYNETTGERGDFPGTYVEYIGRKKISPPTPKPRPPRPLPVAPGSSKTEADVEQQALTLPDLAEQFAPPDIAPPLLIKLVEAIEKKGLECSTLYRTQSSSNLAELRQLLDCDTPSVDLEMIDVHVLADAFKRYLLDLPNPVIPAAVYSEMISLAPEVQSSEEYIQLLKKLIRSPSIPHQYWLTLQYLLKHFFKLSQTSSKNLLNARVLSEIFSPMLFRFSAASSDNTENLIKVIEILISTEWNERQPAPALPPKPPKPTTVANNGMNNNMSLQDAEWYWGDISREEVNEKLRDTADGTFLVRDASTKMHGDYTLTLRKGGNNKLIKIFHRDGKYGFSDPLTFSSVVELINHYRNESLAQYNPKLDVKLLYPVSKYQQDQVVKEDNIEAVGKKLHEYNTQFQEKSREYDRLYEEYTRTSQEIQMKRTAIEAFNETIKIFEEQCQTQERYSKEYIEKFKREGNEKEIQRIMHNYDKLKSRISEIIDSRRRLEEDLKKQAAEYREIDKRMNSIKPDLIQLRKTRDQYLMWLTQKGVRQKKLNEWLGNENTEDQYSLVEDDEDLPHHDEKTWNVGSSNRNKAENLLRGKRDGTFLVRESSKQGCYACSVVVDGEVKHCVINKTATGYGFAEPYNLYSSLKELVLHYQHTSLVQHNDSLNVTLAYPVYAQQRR
T3 sequence (O00329 whole entry): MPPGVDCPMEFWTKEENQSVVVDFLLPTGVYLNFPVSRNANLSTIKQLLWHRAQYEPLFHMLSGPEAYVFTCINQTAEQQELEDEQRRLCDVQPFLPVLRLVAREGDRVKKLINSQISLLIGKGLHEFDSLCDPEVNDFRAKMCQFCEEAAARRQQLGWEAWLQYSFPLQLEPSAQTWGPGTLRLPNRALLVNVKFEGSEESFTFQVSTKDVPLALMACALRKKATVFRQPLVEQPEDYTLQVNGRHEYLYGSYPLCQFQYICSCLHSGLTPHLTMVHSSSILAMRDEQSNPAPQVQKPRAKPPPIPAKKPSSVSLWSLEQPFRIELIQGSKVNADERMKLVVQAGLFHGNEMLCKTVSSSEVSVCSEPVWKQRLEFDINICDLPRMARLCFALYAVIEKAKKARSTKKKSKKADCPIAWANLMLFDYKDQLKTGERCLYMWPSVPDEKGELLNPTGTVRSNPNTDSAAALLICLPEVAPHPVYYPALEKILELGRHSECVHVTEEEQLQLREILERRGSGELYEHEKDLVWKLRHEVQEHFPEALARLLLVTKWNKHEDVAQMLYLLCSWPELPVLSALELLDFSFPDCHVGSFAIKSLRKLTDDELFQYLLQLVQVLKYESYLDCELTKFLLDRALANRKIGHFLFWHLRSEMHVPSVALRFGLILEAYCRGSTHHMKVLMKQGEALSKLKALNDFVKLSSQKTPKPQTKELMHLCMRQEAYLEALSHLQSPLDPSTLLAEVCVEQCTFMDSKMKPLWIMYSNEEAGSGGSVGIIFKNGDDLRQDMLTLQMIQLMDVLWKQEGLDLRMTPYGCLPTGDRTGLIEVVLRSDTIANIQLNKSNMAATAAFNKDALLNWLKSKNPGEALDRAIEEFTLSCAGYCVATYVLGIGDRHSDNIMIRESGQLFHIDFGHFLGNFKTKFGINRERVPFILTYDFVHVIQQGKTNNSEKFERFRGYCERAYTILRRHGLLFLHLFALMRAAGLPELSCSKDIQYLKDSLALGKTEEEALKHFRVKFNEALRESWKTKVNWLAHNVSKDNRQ
T3 sequence (P27986 whole entry partner): as the sequence (P27986 whole entry partner) above
T1 sequence (P42338 whole entry): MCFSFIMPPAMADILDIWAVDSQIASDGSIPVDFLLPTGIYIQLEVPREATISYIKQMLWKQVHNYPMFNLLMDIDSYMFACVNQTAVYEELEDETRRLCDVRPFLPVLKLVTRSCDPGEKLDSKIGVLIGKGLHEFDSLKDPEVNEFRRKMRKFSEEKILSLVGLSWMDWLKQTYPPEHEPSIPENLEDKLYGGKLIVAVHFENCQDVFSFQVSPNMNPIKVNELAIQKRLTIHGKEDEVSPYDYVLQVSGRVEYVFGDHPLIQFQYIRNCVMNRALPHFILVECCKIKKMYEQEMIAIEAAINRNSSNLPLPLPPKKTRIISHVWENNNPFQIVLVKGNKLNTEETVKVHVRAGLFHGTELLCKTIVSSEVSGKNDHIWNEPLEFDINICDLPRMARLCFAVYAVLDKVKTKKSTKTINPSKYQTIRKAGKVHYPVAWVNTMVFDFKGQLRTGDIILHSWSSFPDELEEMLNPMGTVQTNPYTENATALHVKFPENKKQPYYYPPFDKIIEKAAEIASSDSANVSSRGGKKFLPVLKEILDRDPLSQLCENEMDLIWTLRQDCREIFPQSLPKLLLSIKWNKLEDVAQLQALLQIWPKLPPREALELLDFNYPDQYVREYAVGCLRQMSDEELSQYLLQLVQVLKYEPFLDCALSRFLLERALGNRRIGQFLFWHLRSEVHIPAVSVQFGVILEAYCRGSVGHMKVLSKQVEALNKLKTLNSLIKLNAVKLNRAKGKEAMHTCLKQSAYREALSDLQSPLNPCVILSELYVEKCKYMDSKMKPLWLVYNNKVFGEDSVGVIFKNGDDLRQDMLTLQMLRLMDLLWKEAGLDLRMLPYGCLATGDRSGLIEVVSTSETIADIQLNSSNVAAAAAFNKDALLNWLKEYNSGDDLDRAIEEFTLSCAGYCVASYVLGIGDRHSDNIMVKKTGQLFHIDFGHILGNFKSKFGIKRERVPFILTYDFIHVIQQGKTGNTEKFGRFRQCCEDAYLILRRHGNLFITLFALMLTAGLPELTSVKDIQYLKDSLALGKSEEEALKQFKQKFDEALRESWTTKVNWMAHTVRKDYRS
T1 sequence (P27986 whole entry partner): as the sequence (P27986 whole entry partner) above

For the molecule `COc1ncc(-c2ccc3ncc(C#CCO)n3n2)cc1NS(=O)(=O)c1ccc(F)cc1F` [Ex. 9, 2,4-difluoro-N-(5-(3-(3-hydroxyprop-1-yn-1-yl)imidazo[1,2-b]pyridazin-6-yl)-2-methoxypyridin-3-yl)benzenesulfonamide], in data set [1], the F turned out to be 44.2%, the “Clearance (CL)” value was determined as 6.17 mL/min/kg, the area under the curve AUC(0-t) was determined as 2750 ng·h/mL and the half-life is 43.8 min. Moreover, the Vd in data set [1] amounted to 0.31 L/kg. Moreover, the IC50 in data set [2] was determined as 38 nM. Moreover, in data set [3], the IC50 was 2 nM. For the same molecule, in data set [4], the IC50 worked out at 2 nM.
As to `COc1ncc(-c2ccc3ncc(C#CCO)n3c2)cc1NS(=O)(=O)c1ccc(F)cc1F` [Ex. 15, 2,4-difluoro-N-(5-(3-(3-hydroxyprop-1-yn-1-yl)imidazo[1,2-a]pyridin-6-yl)-2-methoxypyridin-3-yl)benzenesulfonamide], in data set [1], the F was found to be 108.5%, the “Clearance (CL)” value was determined as 7.67 mL/min/kg, the AUC(0-t) came to 2170 ng·h/mL and the half-life is 44.4 min. Also, the Vd in data set [1] was found to be 0.37 L/kg. Moreover, in data set [2], the IC50 amounted to 27 nM. In addition, in data set [5], the IC50 came to 37 nM. In data set [3], the IC50 stood at 2 nM. In data set [4], the IC50 was determined as 1 nM.
For the molecule `COc1ncc(-c2ccc3ncc(C#CC(C)O)n3c2)cc1NS(=O)(=O)c1ccc(F)cc1F` (stereo not drawn) [Ex. 16, 2,4-difluoro N (5 (3 (3 hydroxybut-1-yn-1-yl)imidazo[1,2-a]pyridin-6-yl)-2-methoxypyridin-3-yl)benzenesulfonamide], the concentration for half-maximal inhibition (IC50) in data set [2] worked out at 66 nM; in data set [5], 5 nM; in data set [3], 2 nM; in data set [4] it was 3 nM.
Take `COc1ncc(-c2ccc3ncc(C#N)n3n2)cc1NS(=O)(=O)c1ccc(F)cc1F` [Ex. 24, N-(5-(3-cyanoimidazo[1,2-b]pyridazin-6-yl)-2-methoxypyridin-3-yl)-2,4-difluorobenzenesulfonamide]: in data set [1], the F is recorded as 108.5%, the “Clearance (CL)” value is 9 mL/min/kg, the AUC(0-t) is 1840 ng·h/mL and the half-life is 34.2 min. Also, the Vd in data set [1] was found to be 0.37 L/kg. For the same molecule, the IC50 in data set [2] is 26 nM. In addition, in data set [5], the IC50 stood at 4 nM. In addition, the IC50 in data set [3] worked out at 2 nM. Also, the IC50 in data set [4] is 3 nM.

Values taken from patent US9926324B2, “Heteroaromatic compounds as PI3 kinase modulators and methods of use” (Calitor Sciences, LLC, priority 2012, dated 2018).
